{"source": "patent US8344027B2", "about": "“4-dimethylaminobutyric acid derivatives” (Hoffmann-La Roche Inc., priority 2008, dated 2013)", "key": {"hL-CPT1": {"molecular_target": "T1, hL-CPT1 (Homo sapiens, UniProt P50416)", "T1 construct": "made in house; host or cells: Pichia pastoris strain X-33", "T1 sequence (P50416 1-773)": "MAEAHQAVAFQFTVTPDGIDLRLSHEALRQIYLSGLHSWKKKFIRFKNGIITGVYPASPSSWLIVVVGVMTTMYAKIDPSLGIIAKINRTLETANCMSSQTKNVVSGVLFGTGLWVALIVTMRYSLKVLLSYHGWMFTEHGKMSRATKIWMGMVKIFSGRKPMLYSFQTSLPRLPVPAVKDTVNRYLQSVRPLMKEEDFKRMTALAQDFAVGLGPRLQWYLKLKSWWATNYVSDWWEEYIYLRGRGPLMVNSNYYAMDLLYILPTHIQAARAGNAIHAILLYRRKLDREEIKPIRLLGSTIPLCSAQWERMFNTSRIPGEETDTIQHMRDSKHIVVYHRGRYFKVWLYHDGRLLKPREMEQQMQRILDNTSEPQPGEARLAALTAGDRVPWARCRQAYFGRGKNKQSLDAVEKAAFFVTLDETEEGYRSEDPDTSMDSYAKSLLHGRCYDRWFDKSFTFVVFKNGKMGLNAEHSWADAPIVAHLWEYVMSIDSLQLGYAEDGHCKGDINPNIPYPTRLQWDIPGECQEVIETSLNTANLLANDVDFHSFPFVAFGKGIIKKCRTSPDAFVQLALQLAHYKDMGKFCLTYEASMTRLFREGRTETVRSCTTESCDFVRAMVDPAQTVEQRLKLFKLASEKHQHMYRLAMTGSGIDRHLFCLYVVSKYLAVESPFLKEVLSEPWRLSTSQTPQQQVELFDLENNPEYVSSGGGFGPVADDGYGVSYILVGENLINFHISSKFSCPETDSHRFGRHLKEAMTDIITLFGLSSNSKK", "experiment": "liver CPT1 inhibition, spectrophotometric DTNB (Ellman's reagent) assay", "assay_type": "biochemical", "conditions": "human liver CPT1 expressed in P. pastoris, cell extract; carnitine 500 μM, palmitoyl-CoA 80 μM, DTNB 300 μM", "procedure": "(§1) The following tests were carried out in order to determine the activity of the compounds of the present invention. Background information on the performed assays can be found in: Jackson et al., 1999, Biochem. J. 341, 483-489 and Jackson et al., 2000, J. Biol. Chem. 275, 19560-19566.\n(§2) Human and rat CPT2- and liver CPT1 cDNAs, and human muscle CPT1 cDNA were subcloned in pGAPZB or pGAPZA, respectively. These plasmids were used to transform P. pastoris strain X-33 via electroporation after the preparation of electrocompetent cells. High copy number clones were selected where necessary using 0.5 or 1 mg/ml Zeocin. Cultures for activity measurements were induced for 16 h in YPD medium (1% yeast extract, 2% peptone, 2% glucose). Crude cell extracts were prepared by disrupting the cells with glass beads or French Press, depending on fermenter sizes. After centrifugation, the cell-free extracts were resuspended in cell breaking buffer (50 mM Tris, pH7.4, 100 mM KCl, 1 mM EDTA) in the presence of a protease inhibitor cocktail, before aliquoting and freezing at −20° C.\n(§3) CPT activity was measured using a spectrophotometric assay using 5,5′-dithio-bis-(2-nitrobenzoic acid) (DTNB) also called Ellman's reagent. The HS-CoA released on the formation of acylcarnitine from carnitine (500 μM) and palmitoyl-CoA (80 μM) reduced DTNB (300 μM) forming 5-mercapto-2-nitrobenzoic acid which absorbed at 410 nm with a molar extinction coefficient of 13600 M^−1cm^−1. The assay buffer contained 120 mM KCl, 25 mM Tris, pH 7.4, 1 mM EDTA. This assay was used for the identification of CPT inhibitors, particularly/preferentially CPT2-selective inhibitors, versus the liver and muscle CPT1 isoforms."}, "hCPT2": {"molecular_target": "T2, hCPT2 (Homo sapiens, UniProt P23786)", "T2 construct": "made in house; host or cells: Pichia pastoris strain X-33", "T2 sequence (P23786 26-658)": "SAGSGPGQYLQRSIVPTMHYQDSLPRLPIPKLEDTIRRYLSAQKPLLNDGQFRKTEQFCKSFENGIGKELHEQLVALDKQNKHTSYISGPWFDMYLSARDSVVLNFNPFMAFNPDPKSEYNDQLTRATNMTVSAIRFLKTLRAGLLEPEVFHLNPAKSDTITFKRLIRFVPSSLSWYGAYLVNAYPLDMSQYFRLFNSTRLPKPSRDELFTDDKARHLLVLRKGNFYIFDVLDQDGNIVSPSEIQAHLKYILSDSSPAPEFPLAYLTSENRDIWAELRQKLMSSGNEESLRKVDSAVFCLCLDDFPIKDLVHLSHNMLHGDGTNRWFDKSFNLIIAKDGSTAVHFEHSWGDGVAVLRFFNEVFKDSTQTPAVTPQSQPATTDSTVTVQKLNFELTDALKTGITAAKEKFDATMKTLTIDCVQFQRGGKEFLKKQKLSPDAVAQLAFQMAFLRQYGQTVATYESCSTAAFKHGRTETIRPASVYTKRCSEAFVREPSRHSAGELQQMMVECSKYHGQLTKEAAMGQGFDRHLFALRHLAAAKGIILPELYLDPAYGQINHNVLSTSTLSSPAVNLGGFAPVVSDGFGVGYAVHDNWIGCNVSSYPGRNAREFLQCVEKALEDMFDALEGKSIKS", "experiment": "CPT2 inhibition, spectrophotometric DTNB (Ellman's reagent) assay", "assay_type": "biochemical", "conditions": "human CPT2 expressed in P. pastoris, cell extract; carnitine 500 μM, palmitoyl-CoA 80 μM, DTNB 300 μM", "procedure": "as §1, §2, §3"}}}
{"smiles": "COc1ccc(OCCCCCCCCC(=O)N[C@H](CC(=O)O)CN(C)C)cc1OC", "note": "[Example 26, (R)-3-[9-(3,4-Dimethoxy-phenoxy)-nonanoylamino]-4-dimethylamino-butyric acid]", "values": [{"measurement": "IC50", "setting": "hL-CPT1", "value": 1150, "unit": "nM"}, {"measurement": "IC50", "setting": "hCPT2", "value": 400, "unit": "nM"}]}
{"smiles": "CN(C)C[C@@H](CC(=O)O)NC(=O)CCCCCCCCOc1ccc(C(F)(F)F)cc1", "note": "[Example 27, (R)-4-Dimethylamino-3-[9-(4-trifluoromethyl-phenoxy)-nonanoylamino]-butyric acid]", "values": [{"measurement": "IC50", "setting": "hL-CPT1", "value": 2190, "unit": "nM"}, {"measurement": "IC50", "setting": "hCPT2", "value": 170, "unit": "nM"}]}
{"smiles": "COc1ccc(OCCCCCCCCC(=O)N[C@H](CC(=O)O)CN(C)C)cc1", "note": "[Example 28, (R)-4-Dimethylamino-3-[9-(4-methoxy-phenoxy)-nonanoylamino]-butyric acid]", "values": [{"measurement": "IC50", "setting": "hL-CPT1", "value": 5440, "unit": "nM"}, {"measurement": "IC50", "setting": "hCPT2", "value": 15, "unit": "nM"}]}
{"smiles": "CN(C)C[C@@H](CC(=O)O)NC(=O)CCCCCCCCOc1cccc2ccccc12", "note": "[Example 29, (R)-4-Dimethylamino-3-[9-(naphthalen-1-yloxy)-nonanoylamino]-butyric acid]", "values": [{"measurement": "IC50", "setting": "hL-CPT1", "value": "> 10000", "unit": "nM"}, {"measurement": "IC50", "setting": "hCPT2", "value": 160, "unit": "nM"}]}
{"smiles": "CN(C)C[C@@H](CC(=O)O)NC(=O)CCCCCCCCOc1ccccc1", "note": "[Example 31, (R)-4-Dimethylamino-3-(9-phenoxy-nonanoylamino)-butyric acid]", "values": [{"measurement": "IC50", "setting": "hL-CPT1", "value": 2410, "unit": "nM"}, {"measurement": "IC50", "setting": "hCPT2", "value": 58, "unit": "nM"}]}
{"smiles": "CN(C)C[C@@H](CC(=O)O)NC(=O)CCCCCCCCCc1ccccc1", "note": "[Example 32, (R)-4-Dimethylamino-3-(10-phenyl-decanoylamino)-butyric acid]", "values": [{"measurement": "IC50", "setting": "hL-CPT1", "value": 7020, "unit": "nM"}, {"measurement": "IC50", "setting": "hCPT2", "value": 143, "unit": "nM"}]}
{"smiles": "CN(C)C[C@H](CC(=O)O)NC(=O)CCCCCCCCCc1ccccc1", "note": "[Example 33, (S)-4-Dimethylamino-3-(10-phenyl-decanoylamino)-butyric acid]", "values": [{"measurement": "IC50", "setting": "hL-CPT1", "value": "> 10000", "unit": "nM"}, {"measurement": "IC50", "setting": "hCPT2", "value": 948, "unit": "nM"}]}
{"smiles": "CN(C)C[C@@H](CC(=O)O)NC(=O)CCCCCCCCCc1ccc(F)cc1", "note": "[Example 34, (R)-4-Dimethylamino-3-[10-(4-fluoro-phenyl)-decanoylamino]-butyric acid]", "values": [{"measurement": "IC50", "setting": "hL-CPT1", "value": 4320, "unit": "nM"}, {"measurement": "IC50", "setting": "hCPT2", "value": 122, "unit": "nM"}]}
{"smiles": "CN(C)C[C@@H](CC(=O)O)NC(=O)CCCCCCCCCc1ccccc1F", "note": "[Example 35, (R)-4-Dimethylamino-3-[10-(2-fluoro-phenyl)-decanoylamino]-butyric acid]", "values": [{"measurement": "IC50", "setting": "hL-CPT1", "value": 3590, "unit": "nM"}, {"measurement": "IC50", "setting": "hCPT2", "value": 46, "unit": "nM"}]}
{"smiles": "Cc1ccc(C)c(CCCCCCCCCC(=O)N[C@H](CC(=O)O)CN(C)C)c1", "note": "[Example 36, (R)-4-Dimethylamino-3-[10-(2,5-dimethyl-phenyl)-decanoylamino]-butyric acid]", "values": [{"measurement": "IC50", "setting": "hL-CPT1", "value": "> 10000", "unit": "nM"}, {"measurement": "IC50", "setting": "hCPT2", "value": 317, "unit": "nM"}]}
{"smiles": "Cc1cccc(C)c1CCCCCCCCCC(=O)N[C@H](CC(=O)O)CN(C)C", "note": "[Example 37, (R)-4-Dimethylamino-3-[10-(2,6-dimethyl-phenyl)-decanoylamino]-butyric acid]", "values": [{"measurement": "IC50", "setting": "hL-CPT1", "value": "> 10000", "unit": "nM"}, {"measurement": "IC50", "setting": "hCPT2", "value": 241, "unit": "nM"}]}
{"smiles": "COc1ccc(CCCCCCCCCC(=O)N[C@H](CC(=O)O)CN(C)C)cc1", "note": "[Example 38, (R)-4-Dimethylamino-3-[10-(4-methoxy-phenyl)-decanoylamino]-butyric acid]", "values": [{"measurement": "IC50", "setting": "hL-CPT1", "value": 6910, "unit": "nM"}, {"measurement": "IC50", "setting": "hCPT2", "value": 17, "unit": "nM"}]}
{"smiles": "CN(C)C[C@@H](CC(=O)O)NC(=O)CCCCCCCCCc1cccc2ccccc12", "note": "[Example 39, (R)-4-Dimethylamino-3-(10-naphthalen-1-yl-decanoylamino)-butyric acid]", "values": [{"measurement": "IC50", "setting": "hL-CPT1", "value": "> 10000", "unit": "nM"}, {"measurement": "IC50", "setting": "hCPT2", "value": 3, "unit": "nM"}]}
{"smiles": "CN(C)C[C@@H](CC(=O)O)NC(=O)CCCCCCCCCc1ccc(C(F)(F)F)cc1", "note": "[Example 40, (R)-4-Dimethylamino-3-[10-(4-trifluoromethyl-phenyl)-decanoylamino]-butyric acid]", "values": [{"measurement": "IC50", "setting": "hL-CPT1", "value": 6550, "unit": "nM"}, {"measurement": "IC50", "setting": "hCPT2", "value": 44, "unit": "nM"}]}
{"smiles": "CN(C)C[C@@H](CC(=O)O)NC(=O)CCCCCCCCCc1cccc(F)c1", "note": "[Example 41, (R)-4-Dimethylamino-3-[10-(3-fluoro-phenyl)-decanoylamino]-butyric acid]", "values": [{"measurement": "IC50", "setting": "hL-CPT1", "value": 7720, "unit": "nM"}, {"measurement": "IC50", "setting": "hCPT2", "value": 98, "unit": "nM"}]}
{"smiles": "CN(C)C[C@@H](CC(=O)O)NC(=O)CCCCCCCCCc1cccc(F)c1F", "note": "[Example 42, (R)-3-[10-(2,3-Difluoro-phenyl)-decanoylamino]-4-dimethylamino-butyric acid]", "values": [{"measurement": "IC50", "setting": "hL-CPT1", "value": 2340, "unit": "nM"}, {"measurement": "IC50", "setting": "hCPT2", "value": 22, "unit": "nM"}]}
{"smiles": "CN(C)C[C@@H](CC(=O)O)NC(=O)CCCCCCCCCc1ccsc1", "note": "[Example 43, (R)-4-Dimethylamino-3-(10-thiophen-3-yl-decanoylamino)-butyric acid]", "values": [{"measurement": "IC50", "setting": "hL-CPT1", "value": 7310, "unit": "nM"}, {"measurement": "IC50", "setting": "hCPT2", "value": 118, "unit": "nM"}]}
{"smiles": "CN(C)C[C@@H](CC(=O)O)NC(=O)CCCCCCCCCc1cncs1", "note": "[Example 44, (R)-4-Dimethylamino-3-(10-thiazol-5-yl-decanoylamino)-butyric acid]", "values": [{"measurement": "IC50", "setting": "hL-CPT1", "value": "> 10000", "unit": "nM"}, {"measurement": "IC50", "setting": "hCPT2", "value": 1060, "unit": "nM"}]}
{"smiles": "CN(C)C[C@@H](CC(=O)O)NC(=O)CCCCCCCCCCc1ccccc1", "note": "[Example 50, (R)-4-Dimethylamino-3-(11-phenyl-undecanoylamino)-butyric acid]", "values": [{"measurement": "IC50", "setting": "hL-CPT1", "value": "> 10000", "unit": "nM"}, {"measurement": "IC50", "setting": "hCPT2", "value": 2100, "unit": "nM"}]}
{"smiles": "CN(C)C[C@@H](CC(=O)O)NC(=O)CCCCCCCCCCCc1ccccc1", "note": "[Example 51, (R)-4-Dimethylamino-3-(12-phenyl-dodecanoylamino)-butyric acid]", "values": [{"measurement": "IC50", "setting": "hL-CPT1", "value": 1060, "unit": "nM"}, {"measurement": "IC50", "setting": "hCPT2", "value": 184, "unit": "nM"}]}
{"smiles": "CN(C)C[C@@H](CC(=O)O)NC(=O)NCCCCCCCCCc1ccccc1", "note": "[Example 63, (R)-4-Dimethylamino-3-[3-(9-phenyl-nonyl)-ureido]-butyric acid]", "values": [{"measurement": "IC50", "setting": "hL-CPT1", "value": 2870, "unit": "nM"}, {"measurement": "IC50", "setting": "hCPT2", "value": 332, "unit": "nM"}]}
